Experiments:
[1] = In vivo acute toxicity study with overdose of cold standard; parameters: species or system JAX Swiss Outbred mice; details: for ALP (alkaline phosphatase) / ALT (alanine aminotransferase) / AST (aminotransferase) / BUN (blood urea nitrogen) / creatinine: mice plasma
Description: In vivo Toxicity study. An In vivo acute toxicity study of [^19F]F-cinacalcet was carried out in JAX Swiss Outbred mice. The mice were injected intravenously with an overdose of cold standard [^19F]F-cinacalcet (57.6 μg, ˜1000 times greater than the radiotracer [^18F]F-cinacalcet dose). Plasma samples were collected and analyzed at various time points. […] Alkaline phosphatase (ALP) and alanine transaminase (ALT) are two important biological indicators associated with liver function. […] It is very common to see a transient increase in blood AST after drug administration, which usually has no actual pathological significance. Blood urea nitrogen (BUN) and creatinine are two critical indicators for evaluating kidney function. There were no significant changes in BUN and creatinine levels in the mice injected with [^19F]F-cinacalcet compared with the vehicle controls. In addition, histopathological staining was performed on the kidney, liver, and heart tissues collected at different time points. […] The basic structures of the glomerulus, renal tubulus, liver lobule central vein, and cardiac muscle fibers remained intact.

[2] = target: T1, CSR (Homo sapiens, UniProt P41180); assay: Cell uptake and specific blocking assays in Hcc827 cells; details: blocker 100 μM
T1 sequence (P41180 20-1078): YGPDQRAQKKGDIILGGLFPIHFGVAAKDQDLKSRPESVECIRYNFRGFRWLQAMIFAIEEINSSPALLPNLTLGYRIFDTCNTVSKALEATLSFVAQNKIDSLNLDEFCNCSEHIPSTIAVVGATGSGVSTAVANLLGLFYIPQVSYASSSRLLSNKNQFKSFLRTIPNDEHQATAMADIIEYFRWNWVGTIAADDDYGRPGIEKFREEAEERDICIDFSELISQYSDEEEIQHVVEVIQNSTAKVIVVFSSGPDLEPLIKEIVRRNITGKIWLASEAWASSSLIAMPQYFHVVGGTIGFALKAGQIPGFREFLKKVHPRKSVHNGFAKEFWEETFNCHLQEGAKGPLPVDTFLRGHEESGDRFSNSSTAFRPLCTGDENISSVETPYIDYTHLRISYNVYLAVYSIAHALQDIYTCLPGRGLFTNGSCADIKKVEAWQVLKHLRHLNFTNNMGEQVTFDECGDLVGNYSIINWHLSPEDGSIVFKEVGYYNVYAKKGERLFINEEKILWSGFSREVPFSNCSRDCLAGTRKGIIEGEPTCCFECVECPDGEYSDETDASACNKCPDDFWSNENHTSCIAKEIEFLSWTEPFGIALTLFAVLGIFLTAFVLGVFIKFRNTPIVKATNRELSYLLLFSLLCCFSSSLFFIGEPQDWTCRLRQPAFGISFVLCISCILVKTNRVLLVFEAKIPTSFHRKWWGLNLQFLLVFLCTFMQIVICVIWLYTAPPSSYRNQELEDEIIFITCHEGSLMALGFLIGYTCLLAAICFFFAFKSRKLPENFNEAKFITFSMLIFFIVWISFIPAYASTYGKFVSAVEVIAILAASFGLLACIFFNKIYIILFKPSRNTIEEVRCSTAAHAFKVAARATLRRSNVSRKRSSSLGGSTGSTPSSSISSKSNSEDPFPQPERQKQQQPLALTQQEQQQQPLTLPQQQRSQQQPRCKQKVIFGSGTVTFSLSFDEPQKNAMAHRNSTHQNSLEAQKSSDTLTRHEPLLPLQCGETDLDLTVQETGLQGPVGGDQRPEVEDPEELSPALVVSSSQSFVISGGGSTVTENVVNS

C[C@@H](NCCCc1cccc(C(F)(F)F)c1)c1ccc(F)c2ccccc12 [[^19F]F-ZW-cinacalcet]
ALP (alkaline phosphatase) ([1]; 2 weeks after overdose): 80.33 ± 9.00 U/L
ALT (alanine aminotransferase) ([1]; 2 weeks after overdose): 24.67 ± 0.94 U/L
AST (aminotransferase) ([1]; 2 weeks after overdose): 82 ± 28.6 U/L
BUN (blood urea nitrogen) ([1]; 2 weeks after overdose): 18 ± 0.82 mg/dL
creatinine ([1]; 2 weeks after overdose): 0.18 ± 0.01 mg/dL
ALP (alkaline phosphatase) ([1]; 1 h after overdose): 87.67 ± 13.70 U/L
ALT (alanine aminotransferase) ([1]; 1 h after overdose): 29.33 ± 3.10 U/L
AST (aminotransferase) ([1]; 1 h after overdose): 82.67 ± 21.68 U/L
BUN (blood urea nitrogen) ([1]; 1 h after overdose): 17 ± 1.41 mg/dL
creatinine ([1]; 1 h after overdose): 0.24 ± 0.09 mg/dL
ALP (alkaline phosphatase) ([1]; 24 h after overdose): 54 ± 9.09 U/L
ALT (alanine aminotransferase) ([1]; 24 h after overdose): 31.33 ± 9.10 U/L
AST (aminotransferase) ([1]; 24 h after overdose): 104.67 ± 45.38 U/L
BUN (blood urea nitrogen) ([1]; 24 h after overdose): 18.33 ± 1.25 mg/dL
creatinine ([1]; 24 h after overdose): 0.25 ± 0.11 mg/dL
Acute toxicity ([1]; mice, i.v. overdose 57.6 μg): no acute toxicity
Mortality and health changes ([1]; mice, i.v. overdose 57.6 μg, study period): No animal deaths and significant health changes were observed
Histopathology of kidney, liver and heart (HE staining) ([1]; mice, i.v. overdose, different time points): no obvious pathological changes
Block of [18F]F-ZW-cinacalcet uptake ([2]; 20 min post incubation): 89.9%
Block of [18F]F-ZW-cinacalcet uptake ([2]; other time points): More than 87%

— US20250057994A1, “LABELED COMPOUNDS AND CALCIUM SENSING RECEPTOR LIGANDS FOR IMAGING AND USES THEREOF” (The University of North Carolina at Chapel Hill, priority 2021, published 2025)
